# PubChem BioAssay (NCI)
#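 Test compounds were applied to cells in 96-well plates for 48 hours at 5 doses. TGI: concentration producing complete growth inhibition.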
# How the values were obtained:
# Experiment in all cases: NCI tumour cell line growth inhibition, 48 h
# OVCAR-8 ovarian = tested on: OVCAR-8 ovarian
# ACHN renal = tested on: ACHN renal
# M14 melanoma = tested on: M14 melanoma
# SW-620 colon = tested on: SW-620 colon
# SN12C renal = tested on: SN12C renal
# MALME-3M melanoma = tested on: MALME-3M melanoma
# NCI/ADR-RES ovarian = tested on: NCI/ADR-RES ovarian
# PC-3 prostate = tested on: PC-3 prostate
# TK-10 renal = tested on: TK-10 renal
# SF-268 CNS = tested on: SF-268 CNS
# UACC-257 melanoma = tested on: UACC-257 melanoma
# 786-0 renal = tested on: 786-0 renal
# MCF7 breast = tested on: MCF7 breast
# HCC-2998 colon = tested on: HCC-2998 colon
# SF-539 CNS = tested on: SF-539 CNS
# MDA-N = tested on: MDA-N
# SF-295 CNS = tested on: SF-295 CNS
# HOP-92 NSCLC = tested on: HOP-92 NSCLC
# SK-MEL-28 melanoma = tested on: SK-MEL-28 melanoma
# HCT-116 colon = tested on: HCT-116 colon
# U251 CNS = tested on: U251 CNS
# HOP-62 NSCLC = tested on: HOP-62 NSCLC
# EKVX NSCLC = tested on: EKVX NSCLC
# SR leukemia = tested on: SR leukemia
# SNB-75 CNS = tested on: SNB-75 CNS
# CCRF-CEM leukemia = tested on: CCRF-CEM leukemia
# LOX IMVI melanoma = tested on: LOX IMVI melanoma
# KM12 colon = tested on: KM12 colon
# OVCAR-3 ovarian = tested on: OVCAR-3 ovarian
# MDA-MB-435 = tested on: MDA-MB-435
# DU-145 prostate = tested on: DU-145 prostate
# HT29 colon = tested on: HT29 colon
# IGROV1 ovarian = tested on: IGROV1 ovarian
# SK-OV-3 ovarian = tested on: SK-OV-3 ovarian
# HL-60(TB) leukemia = tested on: HL-60(TB) leukemia
# NCI-H23 lung = tested on: NCI-H23 lung
# A549 NSCLC = tested on: A549 NSCLC
# MDA-MB-231 breast = tested on: MDA-MB-231 breast
# OVCAR-5 ovarian = tested on: OVCAR-5 ovarian
# HS 578T breast = tested on: HS 578T breast
# UO-31 renal = tested on: UO-31 renal
# SNB-19 CNS = tested on: SNB-19 CNS
# NCI-H460 lung = tested on: NCI-H460 lung
# RPMI-8226 leukemia = tested on: RPMI-8226 leukemia
# HCT-15 colon = tested on: HCT-15 colon
# MOLT-4 leukemia = tested on: MOLT-4 leukemia
# T-47D breast = tested on: T-47D breast
# CAKI-1 renal = tested on: CAKI-1 renal
# BT-549 breast = tested on: BT-549 breast
# COLO 205 colon = tested on: COLO 205 colon
# NCI-H522 lung = tested on: NCI-H522 lung
# NCI-H226 lung = tested on: NCI-H226 lung
# OVCAR-4 ovarian = tested on: OVCAR-4 ovarian
# RXF 393 renal = tested on: RXF 393 renal
# SK-MEL-2 melanoma = tested on: SK-MEL-2 melanoma
# UACC-62 melanoma = tested on: UACC-62 melanoma
# SK-MEL-5 melanoma = tested on: SK-MEL-5 melanoma
# K-562 leukemia = tested on: K-562 leukemia
compound,measurement,setting,value
O=C(OCCN1CCCCCC1)C(c1ccsc1)C1CCCCC1 (centres undefined),TGI,OVCAR-8 ovarian,34.5 µM
same,TGI,ACHN renal,33.1 µM
same,TGI,M14 melanoma,32.8 µM
same,TGI,SW-620 colon,33.4 µM
same,TGI,SN12C renal,32.8 µM
same,TGI,MALME-3M melanoma,28.2 µM
same,TGI,NCI/ADR-RES ovarian,31.4 µM
same,TGI,PC-3 prostate,44.9 µM
same,TGI,TK-10 renal,33.5 µM
same,TGI,SF-268 CNS,36.8 µM
same,TGI,UACC-257 melanoma,34.5 µM
same,TGI,786-0 renal,31.8 µM
same,TGI,MCF7 breast,33 µM
same,TGI,HCC-2998 colon,31.5 µM
same,TGI,SF-539 CNS,30.8 µM
same,TGI,MDA-N,28.4 µM
same,TGI,SF-295 CNS,32.4 µM
same,TGI,HOP-92 NSCLC,31.2 µM
same,TGI,SK-MEL-28 melanoma,36.2 µM
same,TGI,HCT-116 colon,29.6 µM
same,TGI,U251 CNS,32.1 µM
same,TGI,HOP-62 NSCLC,29.9 µM
same,TGI,EKVX NSCLC,35.7 µM
same,TGI,SR leukemia,57.2 µM
same,TGI,SNB-75 CNS,32.2 µM
same,TGI,CCRF-CEM leukemia,40.2 µM
same,TGI,LOX IMVI melanoma,32.2 µM
same,TGI,KM12 colon,32.1 µM
same,TGI,OVCAR-3 ovarian,28.8 µM
same,TGI,MDA-MB-435,32.3 µM
same,TGI,DU-145 prostate,33.2 µM
same,TGI,HT29 colon,31.6 µM
same,TGI,IGROV1 ovarian,24.2 µM
same,TGI,SK-OV-3 ovarian,31.8 µM
same,TGI,HL-60(TB) leukemia,70.6 µM
same,TGI,NCI-H23 lung,39 µM
same,TGI,A549 NSCLC,44.5 µM
same,TGI,MDA-MB-231 breast,31.8 µM
same,TGI,OVCAR-5 ovarian,32.5 µM
same,TGI,HS 578T breast,37.8 µM
same,TGI,UO-31 renal,26.9 µM
same,TGI,SNB-19 CNS,40.4 µM
same,TGI,NCI-H460 lung,33 µM
same,TGI,RPMI-8226 leukemia,32.1 µM
same,TGI,HCT-15 colon,30.8 µM
same,TGI,MOLT-4 leukemia,50.6 µM
same,TGI,T-47D breast,17.8 µM
same,TGI,CAKI-1 renal,29.4 µM
same,TGI,BT-549 breast,29.6 µM
same,TGI,COLO 205 colon,22.7 µM
NC1CSc2ccccc2NC1=O (centres undefined),TGI,OVCAR-8 ovarian,> 100 µM
same,TGI,ACHN renal,> 100 µM
same,TGI,NCI-H522 lung,> 100 µM
same,TGI,NCI-H226 lung,> 100 µM
same,TGI,M14 melanoma,> 100 µM
same,TGI,OVCAR-4 ovarian,> 100 µM
same,TGI,SW-620 colon,> 100 µM
same,TGI,SN12C renal,> 100 µM
same,TGI,MALME-3M melanoma,> 100 µM
same,TGI,NCI/ADR-RES ovarian,> 100 µM
same,TGI,PC-3 prostate,> 100 µM
same,TGI,TK-10 renal,> 100 µM
same,TGI,SF-268 CNS,> 100 µM
same,TGI,UACC-257 melanoma,> 100 µM
same,TGI,786-0 renal,> 100 µM
same,TGI,MCF7 breast,> 100 µM
same,TGI,RXF 393 renal,> 100 µM
same,TGI,SK-MEL-2 melanoma,> 100 µM
same,TGI,HCC-2998 colon,> 100 µM
same,TGI,SF-539 CNS,> 100 µM
same,TGI,UACC-62 melanoma,> 100 µM
same,TGI,MDA-N,> 100 µM
same,TGI,SF-295 CNS,> 100 µM
same,TGI,SK-MEL-28 melanoma,> 100 µM
same,TGI,HCT-116 colon,> 100 µM
same,TGI,U251 CNS,> 100 µM
same,TGI,HOP-62 NSCLC,> 100 µM
same,TGI,EKVX NSCLC,> 100 µM
same,TGI,SR leukemia,> 100 µM
same,TGI,SNB-75 CNS,> 100 µM
same,TGI,SK-MEL-5 melanoma,> 100 µM
same,TGI,CCRF-CEM leukemia,> 100 µM
same,TGI,LOX IMVI melanoma,> 100 µM
same,TGI,KM12 colon,> 100 µM
same,TGI,OVCAR-3 ovarian,> 100 µM
same,TGI,MDA-MB-435,> 100 µM
same,TGI,DU-145 prostate,> 100 µM
same,TGI,HT29 colon,> 100 µM
same,TGI,IGROV1 ovarian,> 100 µM
same,TGI,SK-OV-3 ovarian,> 100 µM
same,TGI,HL-60(TB) leukemia,> 100 µM
same,TGI,NCI-H23 lung,> 100 µM
same,TGI,A549 NSCLC,> 100 µM
same,TGI,MDA-MB-231 breast,> 100 µM
same,TGI,OVCAR-5 ovarian,> 100 µM
same,TGI,HS 578T breast,> 100 µM
same,TGI,UO-31 renal,> 100 µM
same,TGI,SNB-19 CNS,> 100 µM
same,TGI,NCI-H460 lung,> 100 µM
same,TGI,K-562 leukemia,> 100 µM
same,TGI,RPMI-8226 leukemia,> 100 µM
same,TGI,HCT-15 colon,> 100 µM
same,TGI,MOLT-4 leukemia,> 100 µM
same,TGI,T-47D breast,> 100 µM
same,TGI,CAKI-1 renal,> 100 µM
same,TGI,BT-549 breast,> 100 µM
same,TGI,COLO 205 colon,> 100 µM
COc1ccc(CCn2nccc2C)cc1,TGI,OVCAR-8 ovarian,> 100 µM
same,TGI,ACHN renal,> 100 µM
same,TGI,M14 melanoma,> 100 µM
same,TGI,OVCAR-4 ovarian,> 100 µM
same,TGI,SW-620 colon,> 100 µM
same,TGI,SN12C renal,> 100 µM
same,TGI,MALME-3M melanoma,> 100 µM
same,TGI,NCI/ADR-RES ovarian,> 100 µM
same,TGI,PC-3 prostate,> 100 µM
same,TGI,TK-10 renal,> 100 µM
same,TGI,SF-268 CNS,> 100 µM
same,TGI,UACC-257 melanoma,> 100 µM
same,TGI,MCF7 breast,> 100 µM
same,TGI,RXF 393 renal,> 100 µM
same,TGI,SF-539 CNS,> 100 µM
same,TGI,UACC-62 melanoma,> 100 µM
same,TGI,MDA-N,> 100 µM
same,TGI,SF-295 CNS,> 100 µM
same,TGI,SK-MEL-28 melanoma,> 100 µM
same,TGI,HCT-116 colon,> 100 µM
same,TGI,U251 CNS,> 100 µM
same,TGI,HOP-62 NSCLC,> 100 µM
same,TGI,EKVX NSCLC,> 100 µM
same,TGI,SR leukemia,> 100 µM
same,TGI,SNB-75 CNS,> 100 µM
same,TGI,SK-MEL-5 melanoma,> 100 µM
same,TGI,CCRF-CEM leukemia,> 100 µM
same,TGI,LOX IMVI melanoma,> 100 µM
same,TGI,KM12 colon,> 100 µM
same,TGI,OVCAR-3 ovarian,> 100 µM
same,TGI,MDA-MB-435,> 100 µM
same,TGI,DU-145 prostate,> 100 µM
same,TGI,HT29 colon,> 100 µM
same,TGI,IGROV1 ovarian,> 100 µM
same,TGI,SK-OV-3 ovarian,> 100 µM
same,TGI,HL-60(TB) leukemia,> 100 µM
same,TGI,NCI-H23 lung,> 100 µM
same,TGI,A549 NSCLC,> 100 µM
same,TGI,MDA-MB-231 breast,> 100 µM
same,TGI,OVCAR-5 ovarian,> 100 µM
same,TGI,HS 578T breast,> 100 µM
same,TGI,UO-31 renal,> 100 µM
same,TGI,SNB-19 CNS,> 100 µM
same,TGI,NCI-H460 lung,> 100 µM
same,TGI,K-562 leukemia,> 100 µM
same,TGI,RPMI-8226 leukemia,> 100 µM
same,TGI,HCT-15 colon,> 100 µM
same,TGI,MOLT-4 leukemia,> 100 µM
same,TGI,T-47D breast,> 100 µM
same,TGI,CAKI-1 renal,> 100 µM
same,TGI,BT-549 breast,> 100 µM
same,TGI,COLO 205 colon,> 100 µM
